# Results: patent publication US4177269A, “Novel 17-esters of 17α-hydroxy gestogens, compositions containing such compounds, processes for their preparation and methods of treatment therewith” (Aktiebolaget Leo, priority 1976, dated 1979)
# Key:
# [1] = Walker carcinosarcoma 256 tumour growth inhibition in rats; assay type: in vivo, Sprague-Dawley rats; parameters: ED50: unit: mg/kg; details: rat, in vivo, po, daily p.o. for 5 days; for LD50: dose causing 50 percent lethality; for selectivity ratio: read-out: T.I. (LD50/ED50)
# Source text: (§1) LD50 is the dose that causes a 50 percent lethality of the animals, and ED50 is the dose that causes a 50 percent reduction of tumour size.
# (§2) The experimental design and the interpretation of the results are in accordance with the standards set by the CCNSC (Cancer Chemotherpy Reports, January 1959 and December 1962).
# (§3) Walker carcinosarcoma 256.
# (§4) Experimental animals: Sprague-Dawley rats.
# (§5) Tumour implant: Tumour pieces with 2-4 mm diameter, sub-
# (§6) Therapy: Daily p.o. administration for 5 days starting on
# (§7) the day following implantation.
# (§8) Termination: The animals are killed on the 9th day.
# (§9) Evaluation: Weights of tumours of test animals are compared
# (§10) with those of control animals.
# [2] = tested on: Walker carcinosarcoma 256; assay: as above; assay type: in vivo, Sprague-Dawley rats; parameters: ED50: unit: mg/kg; details: daily p.o. for 5 days; for ED50: dose causing 50 percent reduction of tumour size, killed 9th day; for antitumour activity: result in words
# Source text: as §1, §2, §3, §4, §5, §6, §7, §8, §9, §10
# [3] = tested on: Ehrlich ascites tumour, ELD hyperdiploid; assay: Ehrlich ascites tumour, ELD hyperdiploid (46 chromosomes), growth inhibition in mice; assay type: in vivo, SPF NMRI mice; details: one i.p. injection; for antitumour activity: result in words; for Tumour weight Treated/Control: 8th day
# Source text: as §2
# Ehrlich ascites tumour, ELD hyperdiploid
# Experimental animals: SPF NMRI mice.
# Tumour implant: 2 × 10^6 tumour cells i.p.
# (§11) Therapy: One injection i.p. on the day following implanta-
# (§12) Termination: The animals are killed on the 8th day.
# Evaluation: Weight of tumours of test animals compared with
# those of control animals.
# [4] = Hepatome AH 130 tumour growth inhibition in rats; assay type: in vivo, Sprague-Dawley rats; parameters: ED50: unit not given here; details: rat, in vivo, ip, one i.p. injection; for LD50: dose causing 50 percent lethality, column head not given; for selectivity ratio: read-out: T.I. (LD50/ED50)
# Source text: as §1, §2, §4
# (§13) Tumour implant: 5 × 10^6 tumour cells i.p.
# as §11, §12, §9, §10
# Hepatome AH 130 = Hepatome AH 130 tumour growth inhibition in rats; assay type: in vivo, Sprague-Dawley rats; parameters: ED50: unit not given here; details: one i.p. injection, dose causing 50 percent reduction of tumour size, killed 8th day
# Source text: as §1, §2, §4, §13, §11, §12, §9, §10
# [5] = biological target: T1, rabbit uterus cytosol progesterone receptor (Oryctolagus cuniculus, UniProt P06186); assay: Relative affinity to rabbit uterus cytosol progesterone receptor (3H-progesterone competition); assay type: binding; details: compared to progesterone; 50% competition with 3H-progesterone; 16-18 hours at 4° C.
# T1 construct: One ml portions of the supernatant (rabbit uterus cytosol) were pipetted into small centrifuge tubes of glass; from tissue; host or cells: uterus cytosol (105,000×g supernatant) of female rabbits pretreated with polyestradiol phosphate
# T1 sequence (P06186 1-930): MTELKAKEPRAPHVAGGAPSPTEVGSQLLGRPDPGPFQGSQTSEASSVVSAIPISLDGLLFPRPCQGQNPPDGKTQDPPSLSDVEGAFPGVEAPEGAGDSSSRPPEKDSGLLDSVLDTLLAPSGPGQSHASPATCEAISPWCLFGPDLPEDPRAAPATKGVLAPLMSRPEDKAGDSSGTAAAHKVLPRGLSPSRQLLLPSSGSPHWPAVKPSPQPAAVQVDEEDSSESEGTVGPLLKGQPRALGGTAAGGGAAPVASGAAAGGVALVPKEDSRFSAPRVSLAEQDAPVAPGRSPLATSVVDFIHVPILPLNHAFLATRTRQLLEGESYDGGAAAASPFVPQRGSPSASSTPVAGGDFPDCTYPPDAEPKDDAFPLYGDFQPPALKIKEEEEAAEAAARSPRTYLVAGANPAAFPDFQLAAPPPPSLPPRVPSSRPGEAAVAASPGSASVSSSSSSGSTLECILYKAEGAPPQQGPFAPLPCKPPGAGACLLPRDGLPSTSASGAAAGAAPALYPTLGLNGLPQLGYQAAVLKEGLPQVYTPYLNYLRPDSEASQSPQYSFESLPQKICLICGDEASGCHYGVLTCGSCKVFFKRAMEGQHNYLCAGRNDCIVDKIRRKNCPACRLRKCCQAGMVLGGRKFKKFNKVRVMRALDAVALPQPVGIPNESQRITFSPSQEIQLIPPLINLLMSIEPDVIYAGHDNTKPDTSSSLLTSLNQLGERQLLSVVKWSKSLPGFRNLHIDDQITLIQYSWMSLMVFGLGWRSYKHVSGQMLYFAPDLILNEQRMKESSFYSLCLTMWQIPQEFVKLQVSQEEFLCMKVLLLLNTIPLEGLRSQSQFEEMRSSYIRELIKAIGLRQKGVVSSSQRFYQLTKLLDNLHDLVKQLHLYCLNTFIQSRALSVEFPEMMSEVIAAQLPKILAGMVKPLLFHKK
# Procedure: This example illustrates the compound's relative affinity to rabbit uterus cytosol progesterone receptor compared with progesterone. The method used for this purpose is a modification of methods already described by Kontula, K. et al. (Acta Endocrinol. 78 (1975) 574) and Terenius, L. (Steroids 23 (1974) 909) among others.
# Female rabbits (3-4 pounds) from Knut Larsen, Uddevalla, Sweden, were injected i.m. with 1 mg Estradurin (polyestradiol phosphate, 1 mg/ml saline, AB Leo, Sweden). After one week, the animals were killed and the uteri were immediately removed, chilled and cut free from connective tissues. All the following operations were performed at 0°-4° C. The uteri were cut into small pieces and washed several times with 3 vol. of buffer at pH 7.4 containing 50 MM TRIS-HCl, 1.5 mM EDTA, 3 mM NaN3, 2 mM dithiothreitol, and 25% glycerol (by vol.). The tissue was homogenized in the same buffer (3 vol.) with four 15-s bursts at rheostat setting 36-37 of an Ultra Turrax (Janke and Kunkel KG, Staufen, The Federal Republic of Germany). The homogenate was centifuged in a Sorvall GLC-2 centrifuge for 15 min at 600×g. The supernatanate was recentrifuged at 105,000×g for 60 min in a Beckman ultracentrifuge model LB-65-B with rotor SW 56.
# One ml portions of the supernatant (rabbit uterus cytosol) were pipetted into small centrifuge tubes of glass and were kept at -70° C. until used. The protein content was determined by the method of Lowry (J. Biol. Chem. 193 (1951) 265).
# 10.0 mg of each compound was dissolved in 10.0 ml 99.5% ethanol. 100 μl of this standard solution was diluted to 5.0 ml ethanol/glycerol 1:1 (v/v). The ethanol was evaporated by blowing air at 40° C. on the solution. The volume was then adjusted to 5.0 ml by adding buffer without glycerol.
# The compounds were diluted with glycerol/buffer 1:1 to final concentrations between 10^-8 -10^-5 M in total 300 μl incubation media. 100 μl of each compound and of each dilution were incubated in small centrifuge tubes (2 ml) together with 100 μl (10 pg) ^3 H-progesterone (1,2,6,7-3H-progesterone, 47.8 Ci/mMol, The Radiochemical Centre, Amersham, England) and 100 μl cytosol adjusted with buffer to a final concentration of about […]. The incubations were carried out for 16-18 hours at 4° C.
# The separation of bound from free radioactivity was carried out at 0° C. using the dextran coated charcoal technique (DCC). To each incubation tube was added 0.5 ml DCC-suspension (0.05% dextran-70, Pharmacia, Uppsala, Sweden and 0.5% Norit A, Sigma, Saint Louis, Missouri, U.S.A.) The tubes were agitated 2-3 times during 10 minutes whereupon they were centrifuged at 100×g for five minutes. The supernatantes were decanted directly into Scintillation vials (polyethene, Packard) containing 10 ml InstaGel (Packard). The radioactivity was counted in a Philip's liquid scintillation spectrometer Model PW 4510/00 with external standard and automatic quenching correction.
# To incubation tubes were added 100 μl cytosol, 100 μl ^3 H-progesterone (10 pg) and 100 μl of different dilutions of non-radioactive progesterone in glycerol/buffer 1:1 ranging from 0-10^4 pg/100 μl. The tubes were incubated parallel with the compounds described above. The radioactivity was calculated by substracting the counted radioactivity in the incubation tubes with the radioactivity counted in incubations tubes in which the cytosol was replaced with buffer (100 μl).
# The concentration of non-radioactive progesterone [P]i which competes for 50% of bound radioactive progesterone was calculated from the standard curve constructed [B] i/[B] o=0.5 where [B]i is the bound radioactivity at different concentrations of non-radioactive progesterone and [B]o is the bound radioactivity at progesterone concentration zero.
# In the same manner, curves were constructed for each compound X and the concentration for each compound which competes for 50% with bound ^3 H-progesterone ([X]50) was calculated. […]
Structure (SMILES),LD50 [1],selectivity ratio [1],ED50 [2],antitumour activity [3],LD50 [4],selectivity ratio [4],ED50 (Hepatome AH 130),relative binding affinity (RBA) [5],Mortality ([3]; 50 mg/kg),Tumour weight Treated/Control ([3]; 50 mg/kg),antitumour activity [2],Mortality ([3]; 1000 mg/kg),Tumour weight Treated/Control ([3]; 1000 mg/kg)
CC(=O)[C@@]1(OC(=O)CCCOC(=O)CCCc2ccc(N(CCCl)CCCl)cc2)CC[C@H]2[C@@H]3CCC4=CC(=O)CC[C@]4(C)[C@H]3CC[C@@]21C [Compound 3:3],40 mg/kg,20,2,exhibit antitumour activity,180 mg/kg,30,6,0.6%,,,,,
"CC(=O)[C@@]1(OC(=O)COC(=O)CCCc2ccc(N(CCCl)CCCl)cc2)CC[C@H]2[C@@H]3CCC4=CC(=O)CC[C@]4(C)[C@H]3CC[C@@]21C [Compound 3:2, 17α-/4-(4-(N,N-bis(2-chloroethyl)amino)phenyl)butanoyloxyacetoxy/pregn-4-ene-3,20-dione]",> 250 mg/kg,> 83,3,,> 1000 mg/kg,> 10,100,0.7%,0/12,1%,,,
"CC(=O)[C@@]1(OC(=O)COC(=O)Nc2ccc(N(CCCl)CCCl)cc2)CC[C@H]2[C@@H]3CCC4=CC(=O)CC[C@]4(C)[C@H]3CC[C@@]21C [Compound 5:1, 17α-/4-(N,N-bis(2-chloroethyl)amino)phenylcarbamoyloxyacetoxy/pregn-4-ene-3,20-dione]",,,,exhibit antitumour activity,> 250 mg/kg,> 8,30,15.8%,,,exhibit antitumour activity,0/12,1%
"CC(=O)[C@@]1(OC(=O)CNC(=O)CCCc2ccc(N(CCCl)CCCl)cc2)CC[C@H]2[C@@H]3CCC4=CC(=O)CC[C@]4(C)[C@H]3CC[C@@]21C [Compound 4:1, 17α-/4-(4-(N,N-bis(2-chloroethyl)amino)phenyl)butanoylaminoacetoxy/pregn-4-ene-3,20-dione]",,,,exhibit antitumour activity,> 250 mg/kg,> 2,125,1.1%,,,exhibit antitumour activity,,
"CC(=O)[C@@]1(OC(=O)COC(=O)Cc2ccc(N(CCCl)CCCl)cc2)CC[C@H]2[C@@H]3CCC4=CC(=O)CC[C@]4(C)[C@H]3CC[C@@]21C [3:1, 17α-/4-(N,N-bis(2-chloroethyl)amino)phenylacetoxyacetoxy/pregn-4-ene-3,20-dione]",> 250 mg/kg,> 31,8,,> 250 mg/kg,> 83,3,6.6%,1/12,3%,,,
"CC(=O)[C@@]1(OC(=O)CCCOC(=O)c2ccc(C)c(N(CCCl)CCCl)c2)CC[C@H]2[C@@H]3CCC4=CC(=O)CC[C@]4(C)[C@H]3CC[C@@]21C [7:4, 17α-/4-(3-(N,N-bis(2-chloroethyl)amino)-4-methylbenzoyloxy)butanoyloxy/pregn-4-ene-3,20-dione]",,,,exhibit antitumour activity,> 250 mg/kg,> 15,16,0.9%,,,exhibit antitumour activity,,
"CC(=O)[C@@]1(OC(=O)CCCOC(=O)Cc2ccc(N(CCCl)CCCl)cc2)CC[C@H]2[C@@H]3CCC4=CC(=O)CC[C@]4(C)[C@H]3CC[C@@]21C [3:4, 17α-/4-(4-(N,N-bis(2-chloroethyl)amino)phenylacetoxyy)butanoyloxy/pregn-4-ene-3,20-dione]",80 mg/kg,20,4,exhibit antitumour activity,50 mg/kg,25,2,,,,,,
"CC(=O)[C@@]1(OC(=O)COC(=O)CSc2ccc(N(CCCl)CCCl)cc2)CC[C@H]2[C@@H]3CCC4=CC(=O)CC[C@]4(C)[C@H]3CC[C@@]21C [3:5, 17α-/4-(N,N-bis(2-chloroethyl)amino)phenylthioacetoxyacetoxy/pregn-4-ene-3,20-dione]",,,,exhibit antitumour activity,> 250 mg/kg,> 5,50,,,,exhibit antitumour activity,,
